In PubChem BioAssay AID1963968 (Molecular Pharmacology Branch, DTP, NCI, 2024):
pIC50: −log10 of the molar value.

Tested on: 945468-187-T-J3-PDC spheroids with HUVEC/MSC, viability
Assay: Anticancer human tumor 945468-187-T-J3-PDC patient-derived rectal carcinoma cell line growth inhibition [PI3K]
Conditions: for pIC50: curve of first compound; for viability, T/C: stronger effect = lower value; active = viability on the fitted dose curve at most 10% of control; inactive = the rest
Summary of the method: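 Three cell types, namely tumor cells, endothelial cells and mesenchymal stem cells, formed each spheroid. Combinations with four PI3K inhibitors were screened at clinically achievable concentrations decreasing by half-log, and spheroid viability was recorded.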

[1] = second compound 0.00316 µM, first compound 0.0316 µM
[2] = second compound 0.00316 µM, first compound 0.1 µM
[3] = second compound 0.00316 µM, first compound 0.316 µM
[4] = second compound 0.00316 µM, first compound 1 µM
[5] = second compound 0.00316 µM, first compound 3.16 µM
[6] = second compound 0.00316 µM, first compound 10 µM
[7] = second compound 0.01 µM, first compound 0.0316 µM
[8] = second compound 0.01 µM, first compound 0.1 µM
[9] = second compound 0.01 µM, first compound 0.316 µM
[10] = second compound 0.01 µM, first compound 1 µM
[11] = second compound 0.01 µM, first compound 3.16 µM
[12] = second compound 0.01 µM, first compound 10 µM
[13] = second compound 0.0316 µM, first compound 0.0316 µM
[14] = second compound 0.0316 µM, first compound 0.1 µM
[15] = second compound 0.0316 µM, first compound 0.316 µM
[16] = second compound 0.0316 µM, first compound 1 µM
[17] = second compound 0.0316 µM, first compound 3.16 µM
[18] = second compound 0.0316 µM, first compound 10 µM
[19] = second compound 0.1 µM, first compound 0.0316 µM
[20] = second compound 0.1 µM, first compound 0.1 µM
[21] = second compound 0.1 µM, first compound 0.316 µM
[22] = second compound 0.1 µM, first compound 1 µM
[23] = second compound 0.1 µM, first compound 3.16 µM
[24] = second compound 0.1 µM, first compound 10 µM
[25] = second compound 0.316 µM, first compound 0.0316 µM
[26] = second compound 0.316 µM, first compound 0.1 µM
[27] = second compound 0.316 µM, first compound 0.316 µM
[28] = second compound 0.316 µM, first compound 1 µM
[29] = second compound 0.316 µM, first compound 3.16 µM
[30] = second compound 0.316 µM, first compound 10 µM
[31] = second compound 1 µM, first compound 0.0316 µM
[32] = second compound 1 µM, first compound 0.1 µM
[33] = second compound 1 µM, first compound 0.316 µM
[34] = second compound 1 µM, first compound 1 µM
[35] = second compound 1 µM, first compound 3.16 µM
[36] = second compound 1 µM, first compound 10 µM
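Note: spheroids exposed to agents for 7 days before viability read.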
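Throughout, for viability, T/C: 100% = DMSO vehicle control viability.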

CCCS(=O)(=O)Nc1ccc(F)c(C(=O)c2c[nH]c3ncc(-c4ccc(Cl)cc4)cc23)c1F + COc1c(OCCCN2CCOCC2)ccc2c3n(c(=NC(=O)c4cnc(N)nc4)nc12)CCN3
< 5.00: pIC50 (second compound 0.00316 µM) | pIC50 (second compound 0.01 µM)
5.14: pIC50 (second compound 0.0316 µM)
> 7.50: pIC50 (second compound 0.1 µM) | pIC50 (second compound 0.316 µM) | pIC50 (second compound 1 µM)
inactive: viability, T/C [1] 106% | viability, T/C [2] 81% | viability, T/C [3] 88.9% | viability, T/C [4] 77.7% | viability, T/C [5] 87.2% | viability, T/C [6] 52.3% | viability, T/C [7] 86.6% | viability, T/C [8] 77.3% | viability, T/C [9] 86.2% | viability, T/C [10] 87.7% | viability, T/C [11] 95.8% | viability, T/C [12] 74.2% | viability, T/C [13] 83.8% | viability, T/C [14] 89.4% | viability, T/C [15] 79.1% | viability, T/C [16] 89.6% | viability, T/C [17] 86.1% | viability, T/C [18] 36.7% | viability, T/C [19] 42.2% | viability, T/C [20] 48.9% | viability, T/C [21] 38.2% | viability, T/C [22] 43.6% | viability, T/C [23] 28.7% | viability, T/C [25] 18.8% | viability, T/C [26] 20.2% | viability, T/C [27] 20.1% | viability, T/C [28] 22.2% | viability, T/C [29] 20.9% | viability, T/C [30] 7.04% | viability, T/C [31] 15.5% | viability, T/C [32] 16.1% | viability, T/C [33] 18.2% | viability, T/C [34] 18.5% | viability, T/C [35] 15.2% | viability, T/C [36] 6.57%
active: viability, T/C [24] 8.36%

CNC(=O)c1ccc(N2C(=S)N(c3ccc(C#N)c(C(F)(F)F)c3)C(=O)C2(C)C)cc1F + COc1c(OCCCN2CCOCC2)ccc2c3n(c(=NC(=O)c4cnc(N)nc4)nc12)CCN3
< 5.00: pIC50 (second compound 0.00316 µM) | pIC50 (second compound 0.01 µM) | pIC50 (second compound 0.0316 µM)
> 7.50: pIC50 (second compound 0.1 µM) | pIC50 (second compound 0.316 µM) | pIC50 (second compound 1 µM)
inactive: viability, T/C [1] 102% | viability, T/C [2] 94.3% | viability, T/C [3] 98.5% | viability, T/C [4] 84.6% | viability, T/C [5] 98.2% | viability, T/C [6] 99.9% | viability, T/C [7] 98.9% | viability, T/C [8] 97.1% | viability, T/C [9] 90% | viability, T/C [10] 95.2% | viability, T/C [11] 100% | viability, T/C [12] 117% | viability, T/C [13] 101% | viability, T/C [14] 103% | viability, T/C [15] 96.7% | viability, T/C [16] 104% | viability, T/C [17] 111% | viability, T/C [18] 98% | viability, T/C [19] 44.1% | viability, T/C [20] 39.7% | viability, T/C [21] 46.2% | viability, T/C [22] 53.9% | viability, T/C [23] 64.6% | viability, T/C [24] 51.5% | viability, T/C [25] 25.1% | viability, T/C [26] 26.6% | viability, T/C [27] 22.8% | viability, T/C [28] 23.4% | viability, T/C [29] 28.4% | viability, T/C [30] 28.5% | viability, T/C [31] 17.5% | viability, T/C [32] 21.3% | viability, T/C [33] 14.4% | viability, T/C [34] 21.6% | viability, T/C [35] 17.8% | viability, T/C [36] 16.9%
